Patent US20130029942A1, “COMPOUNDS AND THERAPEUTICAL USES THEREOF” (Myrexis, Inc., priority 2003, published 2013)
Structures can show the parent of a compound that is named as a salt. Where two headings read alike, the source gives them in different places.

Experiments:
[1] = system: T-47D cells; assay: Caspase cascade activation / induction of apoptosis in T-47D cells (fluorogenic N-(Ac-DEVD)-N'-ethoxycarbonyl-R110 substrate); assay type: cell-based, human; conditions: Homo sapiens, T47D
[2] = biological target: tubulin (Bos taurus, UniProt P81947+Q6B856); assay: Inhibition of tubulin polymerization (DAPI fluorescence); assay type: biochemical; conditions: MAP-rich tubulin, 30 minutes at 37° C.
Sequence of tubulin (P81947 whole entry): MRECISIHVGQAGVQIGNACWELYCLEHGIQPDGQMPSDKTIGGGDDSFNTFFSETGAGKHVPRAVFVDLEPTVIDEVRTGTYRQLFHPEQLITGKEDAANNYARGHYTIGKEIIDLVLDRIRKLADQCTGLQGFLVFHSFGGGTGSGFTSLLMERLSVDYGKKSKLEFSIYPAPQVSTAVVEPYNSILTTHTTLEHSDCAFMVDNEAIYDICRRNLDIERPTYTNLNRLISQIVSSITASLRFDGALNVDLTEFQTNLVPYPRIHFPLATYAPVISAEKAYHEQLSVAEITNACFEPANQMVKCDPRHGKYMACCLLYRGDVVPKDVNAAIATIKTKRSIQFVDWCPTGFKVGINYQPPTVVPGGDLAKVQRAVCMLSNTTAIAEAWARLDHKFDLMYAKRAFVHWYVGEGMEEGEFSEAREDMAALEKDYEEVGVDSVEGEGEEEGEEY
Sequence of tubulin (Q6B856 whole entry): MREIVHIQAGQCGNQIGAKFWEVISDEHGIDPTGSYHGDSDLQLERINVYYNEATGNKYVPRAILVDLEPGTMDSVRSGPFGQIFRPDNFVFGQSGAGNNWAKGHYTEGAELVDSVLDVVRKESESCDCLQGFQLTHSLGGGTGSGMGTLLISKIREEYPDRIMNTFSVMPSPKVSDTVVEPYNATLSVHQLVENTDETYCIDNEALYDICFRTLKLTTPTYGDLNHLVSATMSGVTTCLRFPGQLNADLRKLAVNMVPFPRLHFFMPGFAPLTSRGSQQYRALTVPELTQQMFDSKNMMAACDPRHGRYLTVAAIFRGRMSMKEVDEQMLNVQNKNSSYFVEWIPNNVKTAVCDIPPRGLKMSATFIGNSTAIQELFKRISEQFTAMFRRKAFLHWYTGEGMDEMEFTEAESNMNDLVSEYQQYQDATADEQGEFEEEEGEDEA
Method: Lyophilized tubulin (Cytoskeleton #ML113, 1 mg, MAP-rich) was assayed for the effect of the test compound on tubulin polymerization as measured by change in fluorescence for 4′,6-diamidino-2-phenylindole (DAPI) (Barron, D. M. et al. Analytical Biochem., 2003, 315, 49-56). 1 μl of serial dilutions of each test compound (from 100×DMSO stock) was added in 96 well plate format and preincubated for 30 minutes with 94 ul of the non-GTP supplemented tubulin supernatant. 5 μl of DAPI/GTP solution was added to initiate polymerization and incubated for 30 minutes at 37° C. Fluorescence was read with excitation 350 nm, emission wavelength 485 nm on a Tecan Spectraflour Plus. Polymerized tubulin (DMSO and with the tubulin stabilizer Taxol® (paclitaxel)) gives a higher DAPI fluorescence as compared to non-polymerized tubulin (vinblastine and colchicine used to determine baseline).

[3] = T-47D, 24 hr, read-out: T-47D (24 hr) EC50
[4] = Table III, time not given, repeats 24 hr or 48 hr T-47D values of Table I, read-out: Caspase activation (EC50 nM)
[5] = 24 h, read-out: T-47D (24 hr) EC50 (nM)
[6] = read-out: Caspase activation (EC50 nM)
[7] = T-47D, 48 hr, read-out: T-47D (48 hr) EC50

EC50 [1, 3] | EC50 [1, 4] | IC50 [2] | EC50 [1, 7] | SMILES | EC50 [1, 5] | EC50 ([1]; 48 h, read-out: T-47D (48 hr) EC50 (nM)) | EC50 [1, 6]
141 nM | 141 nM | 4000 nM | – | Cc1ccc(N(C)c2ncnc3ccccc23)cc1 [Example 35, (4-Methyl-phenyl)-methyl-quinazolin-4-yl-amine] | – | – | –
260 nM | 260 nM | 6000 nM | – | COc1ccc(N(C)c2nc(NC/C=C(\C)CCC=C(C)C)nc3ccccc23)cc1 [Example 13, N^2-(3,7-Dimethyl-octa-2,6-dienyl)-N^4-(4-methoxy-phenyl)-N^4-methyl-quinazoline-2,4-diamine] | – | – | –
161 nM | 161 nM | 3000 nM | – | COc1ccc(N(C)c2nc(Cl)nc3cc(OC)c(OC)cc23)cc1 [Example 20, (2-Chloro-6,7-dimethoxyquinazolin-4-yl)-(4-methoxy-phenyl)-methyl-amine] | – | – | –
317 nM | 317 nM | 10000 nM | 563 nM | COc1ccc(OC)c(Nc2nc(Cl)nc3ccccc23)c1 [Example 31, (2-Chloro-quinazolin-4-yl)-(2,5-dimethoxy-phenyl)-amine] | – | – | –
282 nM | 282 nM | 5000 nM | 265 nM | COc1ccc(OC)c(N(C)c2nc(Cl)nc3ccccc23)c1 [Example 42, (2-Chloro-quinazolin-4-yl)-(2,5-dimethoxy-phenyl)-methyl-amine] | – | – | –
– | 599 nM | 10000 nM | 599 nM | COc1ccc(N(C)c2nccc3ccccc23)cc1 [Example 65, (Isoquinolin-1-yl)-(4-methoxy-phenyl)-methyl-amine] | – | – | –
– | 42 nM | 2000 nM | 42 nM | COc1ccc(N(C)c2ncnc3c2CCCC3)cc1 [Example 25, (5,6,7,8-Tetrahydro-quinazolin-4-yl)-(4-methoxy-phenyl)-methyl-amine] | – | – | –
– | 501 nM | 10000 nM | 501 nM | COc1ccccc1N(C)c1nc(Cl)nc2ccccc12 [Example 44, (2-Chloro-quinazolin-4-yl)-(2-methoxy-phenyl)-methyl-amine] | – | – | –
– | 20 nM | < 1000 nM | 20 nM | COc1ccc(N(C)c2nc(Cl)nc3ccccc23)c(OC)c1 [Example 41, (2-Chloro-quinazolin-4-yl)-(2,4-dimethoxy-phenyl)-methyl-amine] | – | – | –
31 nM | 31 nM | 3000 nM | – | Cc1ccc(N(C)c2nc(Cl)nc3ccccc23)cc1 [Example 2, (2-Chloro-quinazolin-4-yl)-(4-methyl-phenyl)-methyl-amine] | – | – | –
– | 34 nM | 2000 nM | 34 nM | COc1cccc(N(C)c2nc(Cl)nc3ccccc23)c1 [Example 43, (2-Chloro-quinazolin-4-yl)-(3-methoxy-phenyl)-methyl-amine] | – | – | –

SMILES | EC50 [1, 3] | EC50 [1, 4] | IC50 [2] | EC50 [1, 7] | EC50 [1, 5] | EC50 ([1]; 48 h, read-out: T-47D (48 hr) EC50 (nM)) | EC50 [1, 6]
COc1ccc(N(C)c2nc(C)nc3ccccc23)cc1 [Example 72, (4-Methoxy-phenyl)-methyl-(2-methyl-quinazolin-4-yl)-amine hydrochloride] | – | – | < 1000 nM | – | 2 nM | 2 nM | 2 nM
CN(c1ccccc1)c1nc(Cl)nc2ccccc12 [Example 6, (2-Chloro-quinazolin-4-yl)-phenyl-methyl-amine] | – | – | 4000 nM | – | 219 nM | – | 219 nM
COc1ccc(N(C)c2ncnc3ccccc23)cc1 [Example 34, (4-Methoxy-phenyl)-methyl-quinazolin-4-yl-amine] | – | – | 1000 nM | – | – | – | –
